In patent US20050038074A1, “Mitotic kinesin inhibitors” (priority 2003, published 2005) one finds IC50 data, which are given here for twelve compounds.

What is called IC50 is the midpoint of a concentration-inhibition curve. Low readings indicate higher potency, high ones lower potency.

This test addresses T1, human KSP motor domain (KSP(367H)) (Homo sapiens, UniProt P52732).
T1 construct: were used to amplify the motor domain and the neck linker region; made in house; host or cells: E. coli BL21 (DE3)
T1 sequence (P52732 18-359 limits assumed): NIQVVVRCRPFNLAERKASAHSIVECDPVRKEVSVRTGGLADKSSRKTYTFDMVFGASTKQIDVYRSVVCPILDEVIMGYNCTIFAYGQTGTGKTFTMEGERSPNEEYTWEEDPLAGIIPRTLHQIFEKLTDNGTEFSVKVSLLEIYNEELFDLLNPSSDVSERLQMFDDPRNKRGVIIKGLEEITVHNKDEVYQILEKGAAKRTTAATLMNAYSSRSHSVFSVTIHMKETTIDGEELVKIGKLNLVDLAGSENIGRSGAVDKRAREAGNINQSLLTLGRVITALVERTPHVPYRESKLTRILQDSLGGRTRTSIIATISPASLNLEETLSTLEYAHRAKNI
As to the kind of experiment: Kinesin ATPase In Vitro Assay. Type of test: biochemical. The settings on record: kinesin motor domain with microtubules, 1 mM ATP, 23° C.; free phosphate by quinaldine red/ammonium molybdate. The text has this:
I. Kinesin ATPase In Vitro Assay
Cloning and Expression of Human Poly-Histidine Tagged KSP Motor Domain (KSP(367H))
Plasmids for the expression of the human KSP motor domain construct were cloned by PCR using a pBluescript full length human KSP construct (Blangy et al., Cell, vol.83, pp1159-1169, 1995) as a template. The N-terminal primer 5′-[…] (SEQ.ID.NO.: 1) and the C-terminal primer 5′-[…] […] (SEQ.ID.NO.: 2) were used to amplify the motor domain and the neck linker region. The PCR products were digested with AseI and XhoI, ligated into the NdeI/XhoI digestion product of pRSETa (Invitrogen) and transformed into E. coli BL21 (DE3).
Cells were grown at 37° C. to an OD600 of 0.5. After cooling the culture to room temperature expression of KSP was induced with 100 μM IPTG and incubation was continued overnight. Cells were pelleted by centrifugation and washed once with ice-cold PBS. Pellets were flash-frozen and stored −80° C.
Cell pellets were thawed on ice and resuspended in lysis buffer (50 mM K-HEPES, pH 8.0, 250 mM KCl, 0.1% Tween, 10 mM imidazole, 0.5 mM Mg-ATP, 1 mM PMSF, 2 mM benzimidine, 1× complete protease inhibitor cocktail (Roche)). Cell suspensions were incubated with 1 mg/ml lysozyme and 5 mM β-mercaptoethanol on ice for 10 minutes, followed by sonication (3×30 sec). All subsequent procedures were performed at 4° C. Lysates were centrifuged at 40,000×g for 40 minutes. Supernatants were diluted and loaded onto an SP Sepharose column (Pharmacia, 5 ml cartridge) in buffer A (50 mM K-HEPES, pH 6.8, 1 mM MgCl2, 1 mM EGTA, 10 μM Mg-ATP, 1 mM DTT) and eluted with a 0 to 750 mM KCl gradient in buffer A. Fractions containing KSP were pooled and incubated with Ni-NTA resin (Qiagen) for one hour. The resin was washed three times with buffer B (Lysis buffer minus PMSF and protease inhibitor cocktail), followed by three 15-minute incubations and washes with buffer B. Finally, the resin was incubated and washed for 15 minutes three times with buffer C (same as buffer B except for pH 6.0) and poured into a column. KSP was eluted with elution buffer (identical to buffer B except for 150 mM KCl and 250 mM imidazole). KSP-containing fractions were pooled, made 10% in sucrose, and stored at −80° C.
Microtubules are prepared from tubulin isolated from bovine brain. Purified tubulin (>97% MAP-free) at 1 mg/ml is polymerized at 37° C. in the presence of 10 JAM paclitaxel, 1 mM DTT, 1 mM GTP in BRB80 buffer (80 mM K-PIPES, 1 mM EGTA, 1 mM MgCl2 at pH 6.8). The resulting microtubules are separated from non-polymerized tubulin by ultracentrifugation and removal of the supernatant. The pellet, containing the microtubules, is gently resuspended in 10 μM paclitaxel, 1 mM DTT, 50 μg/ml ampicillin, and 5 μg/ml chloramphenicol in BRB80.
The kinesin motor domain is incubated with microtubules, 1 mM ATP (1:1 MgCl2: Na-ATP), and compound at 23° C. in buffer containing 80 mM K-HEPES (pH 7.0), 1 mM EGTA, 1 mM DTT, 1 mM MgCl2, and 50 mM KCl. The reaction is terminated by a 2-10 fold dilution with a final buffer composition of 80 mM HEPES and 50 mM EDTA. Free phosphate from the ATP hydrolysis reaction is measured via a quinaldine red/ammonium molybdate assay by adding 150 μl of quench C buffer containing a 2:1 ratio of quench A:quench B. Quench A contains 0.1 mg/mil quinaldine red and 0.14% polyvinyl alcohol; quench B contains 12.3 mM ammonium molybdate tetrahydrate in 1.15 M sulfuric acid. The reaction is incubated for 10 minutes at 23° C., and the absorbance of the phospho-molybdate complex is measured at 540 nm.
On to `CN1CC[C@@H](N(C)C(=O)N2CC(c3cc(F)ccc3F)=C[C@@]2(CO)c2ccccc2)[C@H](F)C1` (single isomer, unassigned) [Compound 5-3], for which the IC50 was at most 50 µM.
With `CN(C(=O)N1CC(c2cc(F)ccc2F)=C[C@@]1(CO)c1ccccc1)C1CCNCC1F` (stereo in doubt) [Compound 10-2, (2S)-4-(2,5-Difluorophenyl)-N-[(3S,4R)-3-fluoropiperidin-4-yl]-2-(hydroxymethyl)-N-methyl-2-phenyl-2,5-dihydro-1H-pyrrole-1-carboxamide] the figure was at most 50 µM.
Compound `CN1CC[C@H](N(C)C(=O)N2CC(c3cc(F)ccc3F)=C[C@@]2(CO)c2ccccc2)[C@H](F)C1` [Compound 3-1, (2S)-4-(2,5-Difluorophenyl)-N-[(3R,4S)-3-fluoro-1-methylpiperidin-4-yl]-2-(hydroxymethyl)-N-methyl-2-phenyl-2,5-dihydro-1H-pyrrole-1-carboxamide] registered an IC50 of at most 50 µM.
With `CN1CC[C@@H](N(C)C(=O)N2CC(c3cc(F)ccc3F)=C[C@@]2(CO)c2ccccc2)[C@@H](F)C1` [Compound 4-2, (2S)-4-(2,5-Difluorophenyl)-N-[(3S,4R)-3-fluoro-1-methylpiperidin-4-yl]-2-(hydroxymethyl)-N-methyl-2-phenyl-2,5-dihydro-1H-pyrrole-1-carboxamide] the figure was at most 50 µM; with `CN1CC[C@H](N(C)C(=O)N2CC(c3cc(F)ccc3F)=C[C@H]2c2ccccc2)[C@H](F)C1` [Compound 7-1, (2S)-4-(2,5-Difluorophenyl)-N-[(3R,4S)-3-fluoro-1-methylpiperidin-4-yl]-N-methyl-2-phenyl-2,5-dihydro-1H-pyrrole-1-carboxamide], at most 50 µM.
The compound `CN1CC[C@@H](N(C)C(=O)N2CC(c3cc(F)ccc3F)=C[C@H]2c2ccccc2)[C@@H](F)C1` [Compound 7-2, (2S)-4-(2,5-Difluorophenyl)-N-[(3S,4R)-3-fluoro-1-methylpiperidin-4-yl]-N-methyl-2-phenyl-2,5-dihydro-1H-pyrrole-1-carboxamide] registered an IC50 of at most 50 µM.
Compound `CN1CC[C@@H](N(C)C(=O)N2CC(c3cc(F)ccc3F)=C[C@H]2c2ccccc2)[C@H](F)C1` [Compound 7-3, (2S)-4-(2,5-Difluorophenyl)-N-[(3R,4R)-3-fluoro-1-methylpiperidin-4-yl]-N-methyl-2-phenyl-2,5-dihydro-1H-pyrrole-1-carboxamide] came in with an IC50 of at most 50 µM.
With `CN(C(=O)N1CC(c2cc(F)ccc2F)=C[C@@]1(CO)c1ccccc1)[C@H]1CC[N+](C)([O-])C[C@H]1F` (stereo partly drawn) [Compound 9-1, (2S)-4-(2,5-Difluorophenyl)-N-[(3R,4S)-3-fluoro-1-methyl-1-oxidopiperidin-4-yl]-2-(hydroxymethyl)-N-methyl-2-phenyl-2,5-dihydro-1H-pyrrole-1-carboxamide] the figure was at most 50 µM.
With `CC(C)N1CC[C@H](N(C)C(=O)N2CC(c3cc(F)ccc3F)=C[C@@]2(CO)c2ccccc2)[C@H](F)C1` [Compound 11-1, (2S)-4-(2,5-Difluorophenyl)-N-[(3R,4S)-3-fluoro-1-isopropylpiperidin-4-yl]-2-(hydroxymethyl)-N-methyl-2-phenyl-2,5-dihydro-1H-pyrrole-1-carboxamide], the IC50 was at most 50 µM.
Compound `CN(C(=O)N1CC(c2cc(F)ccc2F)=C[C@@]1(CO)c1ccccc1)[C@@H]1CCNC[C@@H]1F` [Compound 12-1, (2S)-4-(2,5-Difluorophenyl)-N-[(3S,4R)-3-fluoropiperidin-4-yl]-2-(hydroxymethyl)-N-methyl-2-phenyl-2,5-dihydro-1H-pyrrole-1-carboxamide] gave an IC50 of at most 50 µM.
Take `CN(C(=O)N1CC(c2cc(F)ccc2F)=C[C@@]1(CO)c1ccccc1)[C@@H]1CCNC[C@H]1F` [Compound 12-2, (2S)-4-(2,5-Difluorophenyl)-N-[(3R,4R)-3-fluoropiperidin-4-yl]-2-(hydroxymethyl)-N-methyl-2-phenyl-2,5-dihydro-1H-pyrrole-1-carboxamide]: the concentration for half-maximal inhibition (IC50) is at most 50 µM.
For `CN(C(=O)N1CC(c2cc(F)ccc2F)=C[C@@]1(CO)c1ccccc1)[C@H]1CCNC[C@@H]1F` [Compound 12-3, (2S)-4-(2,5-Difluorophenyl)-N-[(3S,4S)-3-fluoropiperidin-4-yl]-2-(hydroxymethyl)-N-methyl-2-phenyl-2,5-dihydro-1H-pyrrole-1-carboxamide], the IC50 is at most 50 µM.
